One may read the IC50 as the concentration needed to halve the response being measured. In general, inhibition refers to the drop in the measured response relative to a control, in per cent.

Like-named read-outs stand apart in the source and are kept apart here.

45 compounds from patent US20110212960A1, “NEW COMPOUNDS FOR THE TREATMENT OF CNS DISORDER” (BOEHRINGER INGELHEIM INTERNATIONAL GMBH, priority 2009, published 2011) can be followed below.

This assay addresses T1, human PDE9A2 (Homo sapiens, UniProt O76083).
T1 construct: made in house; host or cells: Sf9 insect cells (infected; crude lysate used as enzyme source)
The experiment in a line: PDE9A2 enzymatic activity assay (scintillation proximity assay). In kind it is biochemical. As to conditions: for inhibition at 10 µM: read-out: % inhibition of PDE9A2. The protocol:
The PDE9A2 enzymatic activity assay was run as scintillation proximity assay (SPA), in general according to the protocol of the manufacturer (Amersham Biosciences, product number: TRKQ 7100).
As enzyme source, lysate (PBS with 1% Triton X-100 supplemented with protease inhibitors, cell debris removed by centrifugation at 13.000 rpm for 30 min) of SF 9 cell expressing the human PDE9A2 was used. The total protein amount included in the assay varied upon infection and production efficacy of the SF9 cells and lay in the range of 0.1-100 ng.
In general, the assay conditions were as follows: • total assay volume: 40 microliter • protein amount: 0.1-50 ng • substrate concentration (cGMP): 20 nanomolar; ˜1 mCi/l • incubation time: 60 min at room temperature • final DMSO concentration: 0.2-1%
The assays were run in 384-well format. The test reagents as well as the enzyme and the substrate were diluted in assay buffer. The assay buffer contained 50 mM Tris, 8.3 mM MgCl2, 1.7 mM EGTA, 0.1% BSA, 0.05% Tween 20; the pH of assay buffer was adjusted to 7.5. The reaction was stopped by applying a PDE9 specific inhibitor (e.g. compounds according to WO04099210 or WO04099211) in excess.
The activity of the positive control (minus the negative control=background) is set to 100% and activity in the presence of test compound is expressed relative to these 100%.

Where [1] appears, read: specific IC50 value lies within the given range, read-out: IC50 within range [nanomolar (nM)].

T1 sequence (O76083 1-533 isoform O76083-2): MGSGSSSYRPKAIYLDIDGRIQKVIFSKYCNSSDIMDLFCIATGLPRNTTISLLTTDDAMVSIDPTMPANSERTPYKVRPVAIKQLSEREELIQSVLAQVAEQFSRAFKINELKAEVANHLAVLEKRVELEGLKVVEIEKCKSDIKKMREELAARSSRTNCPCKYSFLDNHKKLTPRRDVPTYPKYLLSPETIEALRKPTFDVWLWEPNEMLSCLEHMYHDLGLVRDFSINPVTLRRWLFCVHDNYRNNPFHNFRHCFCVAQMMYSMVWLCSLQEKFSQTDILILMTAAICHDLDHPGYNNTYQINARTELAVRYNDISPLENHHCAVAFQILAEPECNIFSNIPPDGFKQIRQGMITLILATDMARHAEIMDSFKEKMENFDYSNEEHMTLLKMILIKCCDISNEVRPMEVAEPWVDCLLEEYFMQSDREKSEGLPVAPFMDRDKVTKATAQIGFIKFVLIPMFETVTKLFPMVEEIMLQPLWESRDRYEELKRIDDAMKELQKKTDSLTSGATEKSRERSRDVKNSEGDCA

For the compound `Cc1ccccc1-n1ncc2c(=O)[nH]c(C3CC3C)nc21` (mixture of isomers) [Example 37], the IC50 under setting [1] was 1 to 200 nM.

Take `COC(=O)C1CCCC(c2nc3c(cnn3-c3ccccc3C)c(=O)[nH]2)C1` (mixture of isomers) [Example 38]: the IC50 under setting [1] was 1 to 200 nM. In the case of `Cc1ccccc1-n1ncc2c(=O)[nH]c(C3CCCC(O)C3)nc21` (mixture of isomers) [Example 40], the IC50 under setting [1] was in the range of 201 to 5000 nM. With `Cc1ccccc1-n1ncc2c(=O)[nH]c(C3CCC(O)C(O)C3)nc21` (mixture of isomers) [Example 41], the IC50 under setting [1] lay in the range of 201 to 5000 nM. As to `CCOC(=O)C1CCCC(c2nc3c(cnn3C(CC)CC)c(=O)[nH]2)C1` (mixture of isomers) [Example 42], the IC50 under setting [1] was 201 to 5000 nM. On the same count and under the same terms, under `CCC(CC)n1ncc2c(=O)[nH]c(C3CCC(C(=O)Nc4cc(OC)cc(OC)c4)CC3)nc21` (mixture of isomers) [Example 44] stands 201 to 5000 nM. As for `O=C([C@H]1CC[C@@H]1c1nc2c(cnn2C2CCC(F)(F)CC2)c(=O)[nH]1)N1CCOCC1` (racemic) [Example 1], the inhibition at 10 µM (at 10 micromolar concentration) came out at 99%. Moreover, the IC50 under setting [1] fell in the range of 1 to 200 nM. For the compound `O=C([C@H]1CC[C@@H]1c1nc2c(cnn2C2CCC(F)(F)CC2)c(=O)[nH]1)N1CC[C@@H](F)C1` (racemic) [Example 2], where the note is “at 10 micromolar concentration”, the inhibition at 10 µM worked out at 100%. Further, the IC50 under setting [1] lay within 1 to 200 nM. In the case of `O=C([C@H]1CC[C@@H]1c1nc2c(cnn2C2CCC(F)(F)CC2)c(=O)[nH]1)N1CCC(F)(F)C1` (racemic) [Example 3], where the note is “at 10 micromolar concentration”, the inhibition at 10 µM worked out at 100%. Under setting [1], the IC50 lay within 1 to 200 nM. For `O=C([C@H]1CC[C@@H]1c1nc2c(cnn2C2CCC(F)(F)CC2)c(=O)[nH]1)N1CC(F)(F)C(F)(F)C1` (racemic) [Example 4] the same measures were 97% and 1 to 200 nM. For `O=C([C@H]1CC[C@@H]1c1nc2c(cnn2C2CCC(F)(F)CC2)c(=O)[nH]1)N1CCC2(CC2)C1` (racemic) [Example 5] the same measures were 100% and 1 to 200 nM. As to `O=C([C@H]1CC[C@@H]1c1nc2c(cnn2C2CCC(F)(F)CC2)c(=O)[nH]1)N1CCC(C(F)(F)F)CC1` (racemic) [Example 6], under “at 10 micromolar concentration”, the inhibition at 10 µM amounted to 101%. In addition, the half-maximal inhibitory concentration (IC50) under setting [1] is 1 to 200 nM.

Turning to `CO[C@@H]1CCN(C(=O)[C@H]2CC[C@@H]2c2nc3c(cnn3C3CCC(F)(F)CC3)c(=O)[nH]2)C1` (racemic) [Example 7], the inhibition at 10 µM (at 10 micromolar concentration) turned out to be 102%. The IC50 under setting [1] is 1 to 200 nM.

In the case of `O=C([C@H]1CC[C@@H]1c1nc2c(cnn2C2CCC(F)(F)CC2)c(=O)[nH]1)N1C[C@H]2CCC[C@H]2C1` (racemic) [Example 8], the IC50 was 1 to 200 nM and the inhibition at 10 µM is 100%. As for `O=C([C@H]1CC[C@@H]1c1nc2c(cnn2C2CCC(F)(F)CC2)c(=O)[nH]1)N1CCC(F)(F)CC1` (racemic) [Example 9], the inhibition at 10 µM (at 10 micromolar concentration) stood at 100%. Moreover, under setting [1], the IC50 fell in the range of 1 to 200 nM. For the compound `CC1(C)CCN(C(=O)[C@H]2CC[C@@H]2c2nc3c(cnn3C3CCC(F)(F)CC3)c(=O)[nH]2)CC1` (racemic) [Example 10], for the setting “at 10 micromolar concentration”, the inhibition at 10 µM turned out to be 97%. The IC50 under setting [1] fell in the range of 1 to 200 nM.

On to `O=C([C@H]1CC[C@@H]1c1nc2c(cnn2C2CCC(F)(F)CC2)c(=O)[nH]1)N1CCC(F)CC1` (racemic) [Example 11], for which the inhibition at 10 µM (at 10 micromolar concentration) was determined as 94%. Also, the IC50 under setting [1] lay in the range of 1 to 200 nM.

Consider `O=C([C@H]1CC[C@@H]1c1nc2c(cnn2C2CCC(F)(F)CC2)c(=O)[nH]1)N1CCCC1` (racemic) [Example 12], for which the inhibition at 10 µM (at 10 micromolar concentration) was found to be 99%. Moreover, the concentration for half-maximal inhibition (IC50) under setting [1] was 1 to 200 nM. For `COC1(C)CCN(C(=O)[C@H]2CC[C@@H]2c2nc3c(cnn3C3CCC(F)(F)CC3)c(=O)[nH]2)CC1` (racemic) [Example 13] the same measures were 97% and 1 to 200 nM. For `O=C([C@H]1CC[C@@H]1c1nc2c(cnn2C2CCC(F)(F)CC2)c(=O)[nH]1)N1CCCC(F)(F)C1` (racemic) [Example 14] the same measures were 100% and 1 to 200 nM. Consider `CC1CCN(C(=O)[C@H]2CC[C@@H]2c2nc3c(cnn3C3CCC(F)(F)CC3)c(=O)[nH]2)CC1` (racemic) [Example 15], for which, for the setting “at 10 micromolar concentration”, the inhibition at 10 µM was 101%. The IC50 under setting [1] is 1 to 200 nM. For `CC1(C)CN(C(=O)[C@H]2CC[C@@H]2c2nc3c(cnn3C3CCC(F)(F)CC3)c(=O)[nH]2)CCO1` (racemic) [Example 16] the same measures were 98% and 1 to 200 nM. In the case of `CCN(CC)C(=O)[C@H]1CC[C@@H]1c1nc2c(cnn2C2CCC(F)(F)CC2)c(=O)[nH]1` (racemic) [Example 17], the inhibition at 10 µM (at 10 micromolar concentration) came out at 99%. The IC50 under setting [1] lay in the range of 1 to 200 nM. For `O=C([C@H]1CC[C@@H]1c1nc2c(cnn2C2CCC(F)(F)CC2)c(=O)[nH]1)N1CCCCC1` (racemic) [Example 18], where the note is “at 10 micromolar concentration”, the inhibition at 10 µM came out at 96%. Moreover, the IC50 under setting [1] fell in the range of 1 to 200 nM.

For `O=C([C@H]1CCC[C@@H]1c1nc2c(cnn2C2CCC(F)(F)CC2)c(=O)[nH]1)N1CCC(F)(F)CC1` (racemic) [Example 19], for the setting “at 10 micromolar concentration”, the inhibition at 10 µM stood at 92%. Also, the IC50 under setting [1] lay within 1 to 200 nM. For `O=C([C@H]1CCCC[C@@H]1c1nc2c(cnn2C2CCC(F)(F)CC2)c(=O)[nH]1)N1CCOCC1` (racemic) [Example 20] the same measures were 71% and 201 to 5000 nM. For `O=C([C@H]1CCCC[C@@H]1c1nc2c(cnn2C2CCC(F)(F)CC2)c(=O)[nH]1)N1CCCC1` (racemic) [Example 21] the same measures were 66% and 1 to 200 nM.

Consider `C#CCNC(=O)C1CCC1c1nc2c(cnn2C2CCC(F)(F)CC2)c(=O)[nH]1` (racemic) [Example 22], for which the inhibition at 10 µM (at 10 micromolar concentration) is 90%. Besides, the IC50 under setting [1] is 1 to 200 nM. For `O=C([C@H]1C[C@@H]1c1nc2c(cnn2C2CCC(F)(F)CC2)c(=O)[nH]1)N1CCCCC1` (racemic) [Example 23] the same measures were 92% and 201 to 5000 nM. For `O=C([C@H]1CC[C@@H]1c1nc2c(cnn2C2CCCC2)c(=O)[nH]1)N1CCCCC1` (racemic) [Example 24] the same measures were 101% and 1 to 200 nM. On to `O=C([C@H]1CCC[C@@H]1c1nc2c(cnn2C2CCC(F)(F)CC2)c(=O)[nH]1)N1CCCCC1` (racemic) [Example 25], for which, under “at 10 micromolar concentration”, the inhibition at 10 µM was 95%. In addition, under setting [1], the IC50 lay within 201 to 5000 nM. Consider `O=C(C1CCCC1c1nc2c(cnn2C2CCCC2)c(=O)[nH]1)N1CCCCC1` (racemic) [Example 26], for which, under “at 10 micromolar concentration”, the inhibition at 10 µM was 99%. The IC50 under setting [1] was in the range of 1 to 200 nM.

Regarding `CCOC(=O)[C@H]1CC[C@@H]1c1nc2c(cnn2C2CCCC2)c(=O)[nH]1` (racemic) [Example 27], the inhibition at 10 µM (at 10 micromolar concentration) stood at 98%. Besides, under setting [1], the IC50 was 1 to 200 nM.

For `O=c1[nH]c([C@@H]2CC[C@H]2CN2CC(F)(F)C(F)(F)C2)nc2c1cnn2C1CCC(F)(F)CC1` (racemic) [Example 28], under “at 10 micromolar concentration”, the inhibition at 10 µM was 94%. Besides, under setting [1], the IC50 is 1 to 200 nM.

On to `Cc1noc(C2CCC2c2nc3c(cnn3C3CCC(F)(F)CC3)c(=O)[nH]2)n1` (racemic) [Example 32], for which the inhibition at 10 µM (at 10 micromolar concentration) was determined as 91%. In addition, the IC50 under setting [1] lay within 1 to 200 nM.

As to `O=c1[nH]c([C@@H]2CC[C@H]2CO)nc2c1cnn2C1CCC(F)(F)CC1` (racemic) [Example 33], for the setting “at 10 micromolar concentration”, the inhibition at 10 µM amounted to 83%. Besides, the IC50 under setting [1] is 201 to 5000 nM.

Consider `O=C([C@@H]1CC[C@@H]1c1nc2c(cnn2C2CCC(F)(F)CC2)c(=O)[nH]1)N1CCCCC1` (racemic) [Example 34], for which the inhibition at 10 µM (at 10 micromolar concentration) came to 57%. Also, under setting [1], the IC50 is 201 to 5000 nM. Consider `Cc1ccncc1-n1ncc2c(=O)[nH]c([C@H]3C[C@@H]3C)nc21` (racemic) [Example 36], for which the inhibition at 10 µM (at 10 micromolar concentration) turned out to be 90%. Besides, under setting [1], the IC50 is 1 to 200 nM.

With `O=C(O)[C@H]1CC[C@@H]1c1nc2c(cnn2C2CCC(F)(F)CC2)c(=O)[nH]1` (racemic) [Example 46], for the setting “at 10 micromolar concentration”, the inhibition at 10 µM worked out at 91%. Under setting [1], the IC50 fell in the range of 1 to 200 nM. For `O=c1[nH]c([C@@H]2CC[C@H]2Cn2cccn2)nc2c1cnn2C1CCC(F)(F)CC1` (racemic) [Example 47] the same measures were 89% and 201 to 5000 nM.

With `CCC(CC)n1ncc2c(=O)[nH]c(C3CCCC(C(=O)O)C3)nc21` (single isomer, unassigned) [Example 45], the IC50 under setting [1] was in the range of 201 to 5000 nM. On the same count and under the same terms, next, `CCOC(=O)[C@H]1C[C@H]1c1nc2c(cnn2C(CC)CC)c(=O)[nH]1` (stereo in doubt) [Example 43]: 201 to 5000 nM. For `O=c1[nH]c(C2CCC2)nc2c1cnn2C1CCCC1` [Example 29], the inhibition at 10 µM (at 10 micromolar concentration) came out at 98%. Moreover, the IC50 under setting [1] lay within 1 to 200 nM. For `O=c1[nH]c(C2CCC2)nc2c1cnn2C1CCC(F)(F)CC1` [Example 30] the same measures were 96% and 1 to 200 nM. As to `Cc1ccncc1-n1ncc2c(=O)[nH]c(C3CCC3)nc21` [Example 31], for the setting “at 10 micromolar concentration”, the inhibition at 10 µM is 80%. Also, the IC50 under setting [1] lay in the range of 201 to 5000 nM.
